Numbers after ± are expanded uncertainties.
Assays:
[1] = Liquid; for mass density: 298.15 K, 101.33 kPa
[2] = refractive index (Na D-line) (dimensionless); settings: 298.15 K; 101.33 kPa; Liquid; Standard Abbe refractometry

| mass density [1] | refractive index [2] | vapor or sublimation pressure ([1]; 419.67 K) | vapor or sublimation pressure ([1]; 372.31 K) | vapor or sublimation pressure ([1]; 396.65 K) | SMILES | vapor or sublimation pressure ([1]; 367.78 K) |
| --- | --- | --- | --- | --- | --- | --- |
| 879.47 ± 0.36 kg/m3 | 1.4048 ± 0.0007 | 93.32 ± 2.4 kPa |  |  | CCCCCC(=O)OC [methyl hexanoate] |  |
| 892.16 ± 0.34 kg/m3 | 1.3847 ± 0.0007 |  | 93.32 ± 1.9 kPa |  | CCCC(=O)OC [methyl butanoate] |  |
| 884.8 ± 0.35 kg/m3 | 1.3971 ± 0.0007 |  |  | 93.32 ± 2.4 kPa | CCCCC(=O)OC [methyl pentanoate] |  |

| SMILES | mass density [1] | refractive index [2] | vapor or sublimation pressure ([1]; 419.67 K) | vapor or sublimation pressure ([1]; 372.31 K) | vapor or sublimation pressure ([1]; 396.65 K) | vapor or sublimation pressure ([1]; 367.78 K) |
| --- | --- | --- | --- | --- | --- | --- |
| CCC#N [propanenitrile] | 776.85 ± 0.51 kg/m3 | 1.36368 ± 0.00073 |  |  |  | 93.32 ± 1.9 kPa |

— the NIST ThermoML archive (doi:10.1021/je060469v)
